From publication PMC3750315, “The production and characterization of a new active lipase from Acremonium alcalophilum using a plant bioreactor” (Biotechnology for Biofuels, 2013)

What follows are molecules tested against T1, LipA (Sodiomyces alcalophilus, UniProt P0CT91) (assay: p-nitrophenol release, […] nm). Conditions: 100 mM phosphate buffer pH 8.0, 40°C.
T1 construct: Transient in Nicotiana benthamiana; vector adds Pr1b signal peptide, Xpress tag, C-myc tag, KDEL (tags kept); N-glycosylated, about 56 kDa on SDS-PAGE
Assay type: biochemical

T1 sequence (P0CT91 23-416): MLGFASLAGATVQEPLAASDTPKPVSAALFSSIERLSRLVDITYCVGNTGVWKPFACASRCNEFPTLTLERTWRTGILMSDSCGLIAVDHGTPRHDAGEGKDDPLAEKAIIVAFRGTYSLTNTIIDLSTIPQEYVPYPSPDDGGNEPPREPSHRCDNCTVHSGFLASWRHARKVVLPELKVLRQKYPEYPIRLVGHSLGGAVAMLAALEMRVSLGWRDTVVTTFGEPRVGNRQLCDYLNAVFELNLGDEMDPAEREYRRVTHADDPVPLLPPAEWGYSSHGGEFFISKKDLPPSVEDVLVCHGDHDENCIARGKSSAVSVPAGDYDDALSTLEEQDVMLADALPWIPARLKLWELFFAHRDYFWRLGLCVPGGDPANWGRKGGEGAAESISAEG

Row | SMILES | Km
1 | CC(=O)Oc1ccc([N+](=O)[O-])cc1 [pNP acetate (C2)] | 150 µM
2 | CCCCCCCCCCCCCCCC(=O)Oc1ccc([N+](=O)[O-])cc1 [pNP palmitate (C16)] | 100 µM

Next, values leading:

Row | Km | SMILES
3 | 160 µM | CCCC(=O)Oc1ccc([N+](=O)[O-])cc1 [pNP butyrate (C4)]
4 | 100 µM | CCCCCCCC(=O)Oc1ccc([N+](=O)[O-])cc1 [pNP caprylate (C8)]
5 | 70 µM | CCCCCCCCCCCCCC(=O)Oc1ccc([N+](=O)[O-])cc1 [pNP myristate (C14)]
